The values below come from patent US20240279221A1, “HETEROCYCLIC COMPOUNDS AND METHODS OF USE” (Schrödinger, Inc., priority 2021, published 2024).

The target in assay [1] is human SOS1 (Homo sapiens (Human), UniProt Q07889). Description: Surface Plasmon Resonance (SPR) SOS1 Binding Assay. Conditions: biotinylated SOS1 (res. 564-1049), 25° C., kinetic or steady state fit, read-out: KD for hSOS1. In outline:
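Biotinylated human SOS1 (res. 564-1049, N-terminal Avi tag) captured on streptavidin chip to ~3,000 RU; 25° C., Tris buffer pH 8.0 with 1 mM MgCl2, 5% DMSO running buffer. Compound series (top 100, 50 or 0.5 μM) injected 60 s, dissociation 600 s; double-referenced KD from 1:1 kinetic or steady-state fit.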

Assay [2] addresses SOS1:KRAS (G12C) interaction (Homo sapiens (Human), UniProt Q07889). Description: SOS1-KRas(G12C) FRET Assay. In kind it is binding. As to conditions: 0.5 nM His10-SOS1 (res. 564-1049), 2.5 nM GST-KRAS (res. 1-169, G12C); read-out: SOS-KRas(G12C) FRET IC50. In outline: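 TR-FRET measured binding of His10-SOS1 (res. 564-1049, 0.5 nM) to GST-KRAS G12C (res. 1-169, 2.5 nM), with anti-GST-Eu(K) and anti-6His-XL665 labels, in PBS with BSA, MgCl2, KF and DTT; 0.5% DMSO. Compound and SOS1 were pre-incubated 15 min at 25° C, KRAS was added, and the plate was read at 665/615 nm after 2 h at RT. IC50 and Hill slope came from non-linear regression.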

Chain of SOS1:KRAS (G12C) interaction (Q07889 564-1049, stated change not applied): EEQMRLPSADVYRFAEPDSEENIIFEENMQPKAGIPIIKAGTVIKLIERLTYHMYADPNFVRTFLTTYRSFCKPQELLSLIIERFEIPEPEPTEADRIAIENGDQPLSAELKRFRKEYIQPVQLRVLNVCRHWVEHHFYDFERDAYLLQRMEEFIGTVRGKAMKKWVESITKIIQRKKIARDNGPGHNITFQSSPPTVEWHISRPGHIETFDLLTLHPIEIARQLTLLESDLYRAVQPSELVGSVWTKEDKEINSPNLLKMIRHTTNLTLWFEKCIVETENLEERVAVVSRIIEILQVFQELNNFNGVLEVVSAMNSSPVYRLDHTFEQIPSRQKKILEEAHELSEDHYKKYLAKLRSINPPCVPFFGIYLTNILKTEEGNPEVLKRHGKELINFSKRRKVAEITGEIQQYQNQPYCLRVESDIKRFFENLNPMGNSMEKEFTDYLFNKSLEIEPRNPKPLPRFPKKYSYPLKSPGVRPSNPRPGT
Chain of human SOS1 (Q07889 564-1049): as the sequence (Q07889 564-1049, stated change not applied) above

For orientation: Kd means the free concentration of one partner at which half of the binding sites on the other are occupied at equilibrium, for simple one-to-one binding. For orientation: IC50 means the point on the concentration scale where inhibition reaches its midpoint. `C[C@H](Nc1nn(C)c(=O)c2cc(=O)n([C@H]3C[C@@H](C#N)C3)cc12)c1cccc(C(F)F)c1F` [Example 75, (1S,3s)-3-(4-(((R)-1-(3-(difluoromethyl)-2-fluorophenyl)ethyl)amino)-2-methyl-1,7-dioxo-1,7-dihydropyrido[3,4-d]pyridazin-6(2H)-yl)cyclobutane-1-carbonitrile]: the Kd in assay [1] was 73 nM. Further, in assay [2], the IC50 is 127 nM.
For `C[C@@H](Nc1nn(C)c(=O)c2cc(=O)n(C3CC(C#N)C3)cc12)c1cccc(C(F)F)c1F` (stereo partly drawn) [Example 76, (1r,3s)-3-(4-(((R)-1-(3-(difluoromethyl)-2-fluorophenyl)ethyl)amino)-2-methyl-1,7-dioxo-1,7-dihydropyrido[3,4-d]pyridazin-6(2H)-yl)cyclobutane-1-carbonitrile], in assay [1], the Kd turned out to be 37 nM. Further, in assay [2], the concentration for half-maximal inhibition (IC50) is 92.8 nM.
Taken in the same sequence, the figures for `Cc1c([C@@H](C)Nc2nn(CCO)c(=O)c3cc(=O)n(C4CC4)cc23)cccc1C(F)(F)F` [Example 77, (R)-6-cyclopropyl-2-(2-hydroxyethyl)-4-((1-(2-methyl-3-(trifluoromethyl)phenyl)ethyl)amino)-2,6-dihydropyrido[3,4-d]pyridazine-1,7-dione] were 61 nM and 305 nM.
Turning to `COC1(C)CN(CCn2nc(N[C@H](C)c3cccc(C(F)(F)F)c3C)c3cn(C4CC4)c(=O)cc3c2=O)C1` [Example 78, (R)-6-cyclopropyl-2-(2-(3-methoxy-3-methylazetidin-1-yl)ethyl)-4-((1-(2-methyl-3-(trifluoromethyl)phenyl)ethyl)amino)-2,6-dihydropyrido[3,4-d]pyridazine-1,7-dione], the Kd in assay [1] was 55 nM. Besides, the IC50 in assay [2] turned out to be 89 nM.
Consider `Cc1c([C@@H](C)Nc2nn(CCN3CC(C)(F)C3)c(=O)c3cc(=O)n(C4CC4)cc23)cccc1C(F)(F)F` [Example 79, (R)-6-cyclopropyl-2-(2-(3-fluoro-3-methylazetidin-1-yl)ethyl)-4-((1-(2-methyl-3-(trifluoromethyl)phenyl)ethyl)amino)-2,6-dihydropyrido[3,4-d]pyridazine-1,7-dione], for which, in assay [1], the Kd came to 124 nM. In assay [2], the half-maximal inhibitory concentration (IC50) came to 300 nM.
Consider `Cc1c([C@@H](C)Nc2nn(C)c(=O)c3c(N(C)C)c(=O)n(C4CC4)cc23)cccc1C(F)(F)F` [Example 80, (R)-6-cyclopropyl-8-(dimethylamino)-2-methyl-4-((1-(2-methyl-3-(trifluoromethyl)phenyl)ethyl)amino)-2,6-dihydropyrido[3,4-d]pyridazine-1,7-dione], for which, in assay [1], the Kd was 303 nM. Also, the IC50 in assay [2] was determined as 302 nM.
Consider `Cc1c([C@@H](C)Nc2nn(C)c(=O)c3c(OC(C)C)c(=O)n(C4CC4)cc23)cccc1C(F)(F)F` [Example 81, (R)-6-cyclopropyl-8-isopropoxy-2-methyl-4-((1-(2-methyl-3-(trifluoromethyl)phenyl)ethyl)amino)-2,6-dihydropyrido[3,4-d]pyridazine-1,7-dione], for which the Kd in assay [1] was found to be 134 nM. In addition, the half-inhibitory concentration (IC50) in assay [2] came out at 376 nM.
Taken in the same sequence, the figures for `Cc1c([C@@H](C)Nc2nn(C)c(=O)c3c(OCC4CC4)c(=O)n(C4CC4)cc23)cccc1C(F)(F)F` [Example 82, (R)-6-cyclopropyl-8-(cyclopropylmethoxy)-2-methyl-4-((1-(2-methyl-3-(trifluoromethyl)phenyl)ethyl)amino)-2,6-dihydropyrido[3,4-d]pyridazine-1,7-dione] were 51 nM and 476 nM.
